From ChEMBL document CHEMBL4507263, “Data for DCP probe BAY-474” (2021) come the findings set out here.

For test [1], the target named is Serine/threonine-protein kinase MARK1 (Homo sapiens) (UniProt Q9P0L2). Put plainly: MARK1 (h) Millipore kinase activity assay. As to conditions: Compound concentration 1.0 uM.
Test [2] concerns the target Tyrosine-protein kinase ZAP-70 (Homo sapiens) (UniProt P43403). Put plainly: ZAP-70 (h) Millipore kinase activity assay. Particulars: Compound concentration 1.0 uM.
The target in test [3] is Endothelin receptor type B (Homo sapiens) (UniProt P24530). As to conditions: Compound concentration 10.0 uM.
In test [4] the target is Kappa-type opioid receptor (Homo sapiens) (UniProt P41145). Particulars: Compound concentration 10.0 uM.
Test [5] has as its target Fibroblast growth factor receptor 1 (Homo sapiens) (UniProt P11362). Put plainly: FGFR1 (h) Millipore kinase activity assay. Particulars: Compound concentration 1.0 uM.
For test [6], the target named is Ephrin type-B receptor 4 (Homo sapiens) (UniProt P54760). Put plainly: EphB4 (h) Millipore kinase activity assay. As to conditions: Compound concentration 1.0 uM.
In test [7] the target is Discoidin domain-containing receptor 2 (Homo sapiens) (UniProt Q16832). Put plainly: DDR2 (h) Millipore kinase activity assay. As to conditions: Compound concentration 1.0 uM.
In test [8] the target is Glutamate receptor ionotropic, kainate (Rattus norvegicus) (UniProt P22756+Q01812+P42260+P42264+Q63273). The test can be described thus: Inhibition of Glutamate, Kainate at 10 µM in the Eurofins-Panlabs radioligand binding assay (Eurofins_assay_232700). Particulars: Compound concentration 10.0 uM.
The target of test [9] is Vascular endothelial growth factor receptor 1 (Homo sapiens) (UniProt P17948). Put plainly: Flt1 (h) Millipore kinase activity assay. Particulars: Compound concentration 1.0 uM.
In test [10] the target is Dual specificity mitogen-activated protein kinase kinase 6 (Homo sapiens) (UniProt P52564). Put plainly: MKK6 (h) Millipore kinase activity assay. As to conditions: Compound concentration 1.0 uM.
For test [11], the system named is MKN-45. The test can be described thus: Cell proliferation with […] cell line. The class given is functional. As to conditions: Homo sapiens.
Test [12] has as its target Fibroblast growth factor receptor 4 (Homo sapiens) (UniProt P22455). The test can be described thus: FGFR4 (h) Millipore kinase activity assay. Particulars: Compound concentration 1.0 uM.
Test [13] has as its target Tyrosine-protein kinase receptor UFO (Homo sapiens) (UniProt P30530). The test can be described thus: Axl (h) Millipore kinase activity assay. Particulars: Compound concentration 1.0 uM.
In test [14] the target is Serine/threonine-protein kinase Sgk3 (Homo sapiens) (UniProt Q96BR1). The test can be described thus: SGK3 (h) Millipore kinase activity assay. Particulars: Compound concentration 1.0 uM.
Test [15] addresses SRSF protein kinase 1 (Homo sapiens) (UniProt Q96SB4). The test can be described thus: SRPK1 (h) Millipore kinase activity assay. As to conditions: Compound concentration 1.0 uM.
Test [16] has as its target Interleukin-1 receptor-associated kinase 4 (Homo sapiens) (UniProt Q9NWZ3). As to conditions: Compound concentration 1000.0 nM.
Test [17] deals with Activin receptor type-2A (Homo sapiens) (UniProt P27037). Particulars: Compound concentration 1000.0 nM.
Test [18] has as its target Serine/threonine-protein kinase Chk1 (Homo sapiens) (UniProt O14757). Particulars: Compound concentration 1000.0 nM.
For test [19], the target named is Serine/threonine-protein kinase STK11 (Homo sapiens) (UniProt Q15831). As to conditions: Compound concentration 1000.0 nM.
Test [20] addresses Serine/threonine-protein kinase TNNI3K (Homo sapiens) (UniProt Q59H18). As to conditions: Compound concentration 1000.0 nM.
Test [21] deals with Fibroblast growth factor receptor 2 (Homo sapiens) (UniProt P21802). Particulars: Compound concentration 1000.0 nM.
Test [22] has as its target Cyclin-dependent kinase 8 (Homo sapiens) (UniProt P49336). Particulars: Compound concentration 1000.0 nM.
For test [23], the target named is Dual specificity mitogen-activated protein kinase kinase 3 (Homo sapiens) (UniProt P46734). Particulars: Compound concentration 1000.0 nM.
Test [24] deals with Dual specificity protein kinase CLK2 (Homo sapiens) (UniProt P49760). Particulars: Compound concentration 1000.0 nM.
For test [25], the target named is AP2-associated protein kinase 1 (Homo sapiens) (UniProt Q2M2I8). Particulars: Compound concentration 1000.0 nM.
Test [26] has as its system Mast/stem cell growth factor receptor Kit (Homo sapiens), P10721 [D816V]. Particulars: Compound concentration 1000.0 nM.
Test [27] deals with Cyclin-dependent kinase-like 5 (Homo sapiens) (UniProt O76039). As to conditions: Compound concentration 1000.0 nM.
Test [28] has as its target Ephrin type-A receptor 3 (Homo sapiens) (UniProt P29320). As to conditions: Compound concentration 1000.0 nM.
Test [29] addresses Serine/threonine-protein kinase ICK (Homo sapiens) (UniProt Q9UPZ9). As to conditions: Compound concentration 1000.0 nM.
In test [30] the target is Inhibitor of nuclear factor kappa-B kinase subunit beta (Homo sapiens) (UniProt O14920). Particulars: Compound concentration 1000.0 nM.
In test [31] the test system is Fibroblast growth factor receptor 3 (Homo sapiens), P22607 [G697C]. As to conditions: Compound concentration 1000.0 nM.
The test system of test [32] is Tyrosine-protein kinase ABL1 (Homo sapiens), P00519 [E255K]. Particulars: Compound concentration 1000.0 nM.
Test [33] concerns the target Vascular endothelial growth factor receptor 2 (Homo sapiens) (UniProt P35968). Particulars: Compound concentration 1000.0 nM.
The target in test [34] is NT-3 growth factor receptor (Homo sapiens) (UniProt Q16288). Particulars: Compound concentration 1000.0 nM.
For test [35], the target named is Serine/threonine-protein kinase MARK1 (Homo sapiens) (UniProt Q9P0L2). Particulars: Compound concentration 1000.0 nM.
In test [36] the target is MAP/microtubule affinity-regulating kinase 4 (Homo sapiens) (UniProt Q96L34). As to conditions: Compound concentration 1000.0 nM.
Test [37] has as its target Cyclin-dependent kinase 5 (Homo sapiens) (UniProt Q00535). Particulars: Compound concentration 1000.0 nM.
Test [38] concerns the target Serine/threonine-protein kinase PAK 4 (Homo sapiens) (UniProt O96013). Particulars: Compound concentration 1000.0 nM.
Test [39] addresses Hepatocyte growth factor receptor (Homo sapiens, UniProt P08581). As to conditions: Compound concentration 1000.0 nM.
Test [40] addresses 5-hydroxytryptamine receptor 2B (Homo sapiens) (UniProt P41595). Particulars: Compound concentration 10.0 uM.
For test [41], the target named is Ribosomal protein S6 kinase alpha-3 (Homo sapiens, UniProt P51812). Particulars: Compound concentration 1000.0 nM.
Test [42] relates to Epidermal growth factor receptor (Homo sapiens), P00533 [L858R]. As to conditions: Compound concentration 1000.0 nM.
The target in test [43] is Serine/threonine-protein kinase N2 (Homo sapiens) (UniProt Q16513). Particulars: Compound concentration 1000.0 nM.
The target in test [44] is Serine/threonine-protein kinase PknB (Mycobacterium tuberculosis) (UniProt P9WI81). Particulars: Compound concentration 1000.0 nM.
Test [45] addresses Serine/threonine-protein kinase/endoribonuclease IRE1 (Homo sapiens) (UniProt O75460). Particulars: Compound concentration 1000.0 nM.
For test [46], the system named is Receptor-type tyrosine-protein kinase FLT3 (Homo sapiens), P36888 [D835Y]. Particulars: Compound concentration 1000.0 nM.

The structures appear in SMILES notation. Active and inactive are the calls of the source. The rule behind the calls is not given here.

As usually defined, the inhibition is the drop in the measured response relative to a control, in per cent. Usually IC90 stands for the concentration at which the effect reaches the 90% level.

Serine/threonine-protein kinase MARK1 (Homo sapiens), sequence (Q9P0L2 whole entry, looked up): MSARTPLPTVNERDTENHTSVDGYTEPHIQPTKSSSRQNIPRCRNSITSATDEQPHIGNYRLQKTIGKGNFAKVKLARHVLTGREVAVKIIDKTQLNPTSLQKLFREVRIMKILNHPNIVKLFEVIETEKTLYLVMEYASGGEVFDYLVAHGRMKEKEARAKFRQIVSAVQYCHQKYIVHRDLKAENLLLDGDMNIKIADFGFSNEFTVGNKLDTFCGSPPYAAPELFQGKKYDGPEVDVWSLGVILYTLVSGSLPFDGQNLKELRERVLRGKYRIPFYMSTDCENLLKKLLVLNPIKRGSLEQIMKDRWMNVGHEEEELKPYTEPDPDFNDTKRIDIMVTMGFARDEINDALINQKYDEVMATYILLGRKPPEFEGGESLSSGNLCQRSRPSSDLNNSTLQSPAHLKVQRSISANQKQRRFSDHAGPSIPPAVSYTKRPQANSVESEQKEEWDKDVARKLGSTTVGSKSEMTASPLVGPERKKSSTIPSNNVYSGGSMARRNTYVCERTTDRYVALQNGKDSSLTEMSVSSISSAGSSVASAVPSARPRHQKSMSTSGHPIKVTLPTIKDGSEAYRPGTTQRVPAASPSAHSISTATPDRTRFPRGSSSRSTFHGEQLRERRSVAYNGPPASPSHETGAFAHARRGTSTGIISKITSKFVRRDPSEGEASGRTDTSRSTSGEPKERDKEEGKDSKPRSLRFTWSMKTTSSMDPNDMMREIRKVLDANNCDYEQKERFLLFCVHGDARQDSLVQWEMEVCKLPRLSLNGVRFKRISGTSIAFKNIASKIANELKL
Activin receptor type-2A (Homo sapiens), sequence (P27037 whole entry): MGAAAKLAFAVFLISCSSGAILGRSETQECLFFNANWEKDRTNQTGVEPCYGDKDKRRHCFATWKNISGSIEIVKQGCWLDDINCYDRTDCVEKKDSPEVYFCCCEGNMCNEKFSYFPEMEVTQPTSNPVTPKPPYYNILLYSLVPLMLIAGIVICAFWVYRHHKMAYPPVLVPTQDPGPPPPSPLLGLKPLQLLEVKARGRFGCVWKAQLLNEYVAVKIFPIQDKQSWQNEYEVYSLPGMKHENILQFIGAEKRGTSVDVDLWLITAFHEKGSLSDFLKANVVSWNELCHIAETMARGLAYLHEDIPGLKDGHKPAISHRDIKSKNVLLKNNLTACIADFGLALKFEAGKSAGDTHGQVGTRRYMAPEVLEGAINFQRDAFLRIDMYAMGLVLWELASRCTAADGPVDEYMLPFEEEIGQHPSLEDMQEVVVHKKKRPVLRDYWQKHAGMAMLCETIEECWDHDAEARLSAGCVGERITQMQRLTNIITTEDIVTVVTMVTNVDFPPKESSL
Serine/threonine-protein kinase/endoribonuclease IRE1 (Homo sapiens), sequence (O75460 19-977 limits assumed): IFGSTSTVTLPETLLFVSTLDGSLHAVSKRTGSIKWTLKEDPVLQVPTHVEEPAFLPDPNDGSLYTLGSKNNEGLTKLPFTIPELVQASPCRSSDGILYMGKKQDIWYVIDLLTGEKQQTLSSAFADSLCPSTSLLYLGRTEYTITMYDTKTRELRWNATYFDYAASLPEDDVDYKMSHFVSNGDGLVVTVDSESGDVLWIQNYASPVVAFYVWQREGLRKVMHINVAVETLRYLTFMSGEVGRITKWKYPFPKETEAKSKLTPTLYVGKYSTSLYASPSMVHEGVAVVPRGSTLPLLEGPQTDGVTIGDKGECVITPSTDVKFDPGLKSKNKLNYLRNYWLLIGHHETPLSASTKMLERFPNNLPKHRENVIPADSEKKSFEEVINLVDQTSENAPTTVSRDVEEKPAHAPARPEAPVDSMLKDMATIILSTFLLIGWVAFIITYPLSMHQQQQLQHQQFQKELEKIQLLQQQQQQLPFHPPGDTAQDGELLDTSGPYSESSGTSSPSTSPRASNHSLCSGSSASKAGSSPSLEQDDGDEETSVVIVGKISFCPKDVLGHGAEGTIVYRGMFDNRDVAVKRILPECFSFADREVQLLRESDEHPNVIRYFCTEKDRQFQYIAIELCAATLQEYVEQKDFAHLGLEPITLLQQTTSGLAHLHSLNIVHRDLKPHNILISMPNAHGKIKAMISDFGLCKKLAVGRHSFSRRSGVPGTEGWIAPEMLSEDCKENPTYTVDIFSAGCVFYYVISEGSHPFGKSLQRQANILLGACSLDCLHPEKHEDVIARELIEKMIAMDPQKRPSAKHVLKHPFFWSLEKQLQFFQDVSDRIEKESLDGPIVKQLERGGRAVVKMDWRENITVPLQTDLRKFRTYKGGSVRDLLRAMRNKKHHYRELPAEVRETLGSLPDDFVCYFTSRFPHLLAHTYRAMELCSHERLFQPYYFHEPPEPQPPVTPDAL
Ribosomal protein S6 kinase alpha-3, sequence (P51812 whole entry): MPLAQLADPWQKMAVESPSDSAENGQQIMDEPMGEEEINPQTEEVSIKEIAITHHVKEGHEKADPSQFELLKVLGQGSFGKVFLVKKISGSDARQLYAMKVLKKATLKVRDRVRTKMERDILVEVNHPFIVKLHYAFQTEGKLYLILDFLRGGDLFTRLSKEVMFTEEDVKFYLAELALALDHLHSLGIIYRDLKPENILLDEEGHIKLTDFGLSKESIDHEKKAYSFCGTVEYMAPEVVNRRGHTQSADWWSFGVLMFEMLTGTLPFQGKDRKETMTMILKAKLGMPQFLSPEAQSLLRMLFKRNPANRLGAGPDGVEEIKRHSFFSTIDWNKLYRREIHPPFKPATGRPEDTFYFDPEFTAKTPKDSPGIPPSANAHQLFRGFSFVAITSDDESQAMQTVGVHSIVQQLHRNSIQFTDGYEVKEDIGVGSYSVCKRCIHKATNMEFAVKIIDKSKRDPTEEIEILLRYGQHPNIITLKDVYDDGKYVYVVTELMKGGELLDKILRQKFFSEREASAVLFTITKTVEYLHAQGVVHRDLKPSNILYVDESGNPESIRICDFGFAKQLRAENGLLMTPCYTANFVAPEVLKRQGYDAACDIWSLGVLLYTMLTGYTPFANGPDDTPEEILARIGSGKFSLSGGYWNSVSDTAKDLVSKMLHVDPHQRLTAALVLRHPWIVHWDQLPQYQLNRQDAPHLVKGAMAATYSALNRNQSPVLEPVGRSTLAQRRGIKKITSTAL
Cyclin-dependent kinase 8 (Homo sapiens), sequence (P49336 whole entry): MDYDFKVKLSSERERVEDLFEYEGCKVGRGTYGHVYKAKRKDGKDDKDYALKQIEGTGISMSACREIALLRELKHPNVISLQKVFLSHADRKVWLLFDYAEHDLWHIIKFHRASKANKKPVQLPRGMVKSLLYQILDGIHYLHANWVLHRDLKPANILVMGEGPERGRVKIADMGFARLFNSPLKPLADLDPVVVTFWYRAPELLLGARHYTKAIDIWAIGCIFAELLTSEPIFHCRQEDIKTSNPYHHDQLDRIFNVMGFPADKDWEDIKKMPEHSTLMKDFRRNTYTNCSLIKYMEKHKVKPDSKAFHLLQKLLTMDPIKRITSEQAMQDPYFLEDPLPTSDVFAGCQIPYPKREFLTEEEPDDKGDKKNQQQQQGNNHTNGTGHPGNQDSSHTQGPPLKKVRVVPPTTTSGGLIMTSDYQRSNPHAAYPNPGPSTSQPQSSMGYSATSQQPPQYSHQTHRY
Ephrin type-B receptor 4 (Homo sapiens), sequence (P54760 whole entry, the tested form may be a part): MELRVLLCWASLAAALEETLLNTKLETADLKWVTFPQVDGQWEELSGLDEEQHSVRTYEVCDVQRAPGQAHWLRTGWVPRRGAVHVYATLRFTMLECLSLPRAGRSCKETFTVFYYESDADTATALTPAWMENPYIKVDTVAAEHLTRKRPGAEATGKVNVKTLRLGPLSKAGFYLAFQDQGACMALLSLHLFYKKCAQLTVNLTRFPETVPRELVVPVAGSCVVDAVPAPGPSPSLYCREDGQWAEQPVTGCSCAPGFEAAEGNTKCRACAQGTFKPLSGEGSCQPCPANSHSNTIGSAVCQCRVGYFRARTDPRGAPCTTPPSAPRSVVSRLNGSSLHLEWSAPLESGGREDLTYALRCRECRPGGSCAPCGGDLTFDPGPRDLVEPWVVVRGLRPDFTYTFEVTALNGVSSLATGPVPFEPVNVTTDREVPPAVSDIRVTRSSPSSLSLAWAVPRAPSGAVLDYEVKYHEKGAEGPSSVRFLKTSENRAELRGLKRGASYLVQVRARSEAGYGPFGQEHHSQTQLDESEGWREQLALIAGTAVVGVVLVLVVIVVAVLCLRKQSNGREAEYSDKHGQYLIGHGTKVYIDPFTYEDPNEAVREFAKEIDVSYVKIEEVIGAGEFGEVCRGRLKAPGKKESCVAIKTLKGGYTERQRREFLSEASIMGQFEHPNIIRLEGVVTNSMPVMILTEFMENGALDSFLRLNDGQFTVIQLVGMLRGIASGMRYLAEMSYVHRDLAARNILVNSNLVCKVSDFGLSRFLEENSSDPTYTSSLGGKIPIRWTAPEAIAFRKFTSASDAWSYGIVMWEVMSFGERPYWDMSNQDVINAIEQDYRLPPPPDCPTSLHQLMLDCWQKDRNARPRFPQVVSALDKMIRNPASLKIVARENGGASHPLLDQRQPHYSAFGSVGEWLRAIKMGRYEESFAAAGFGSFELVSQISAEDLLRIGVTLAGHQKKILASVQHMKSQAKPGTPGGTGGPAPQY
Dual specificity mitogen-activated protein kinase kinase 6 (Homo sapiens), sequence (P52564 whole entry): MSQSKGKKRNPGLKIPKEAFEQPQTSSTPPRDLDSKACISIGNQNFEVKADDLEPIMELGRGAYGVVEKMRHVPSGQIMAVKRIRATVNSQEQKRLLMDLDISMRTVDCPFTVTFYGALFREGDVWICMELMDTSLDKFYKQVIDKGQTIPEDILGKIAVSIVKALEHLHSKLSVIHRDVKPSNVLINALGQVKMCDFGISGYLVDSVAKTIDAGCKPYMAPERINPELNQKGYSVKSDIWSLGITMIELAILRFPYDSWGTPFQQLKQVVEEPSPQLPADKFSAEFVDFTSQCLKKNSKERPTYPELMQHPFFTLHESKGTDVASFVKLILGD

With `CC1=C(C#N)C(c2ccc3[nH]nc(C)c3c2)C(C#N)=C(C)N1` [BAY-474], the inhibition is 11% in test [1]; 12% in test [2]; 18% in [3]; 7% in [4]; 23% in test [5]; -4% in [6]. For the same compound, the inhibition in test [7] was 12%; in test [8] it was -4%; in [9], 69%; in test [10], 5%; in test [12] it was 18%; in [13], 12%. Further, the inhibition in test [14] was -2%; in [15], 11%. For the same compound, the concentration for an effect of 90% (IC90) in test [11] was 24 nM (active).

Take `CC1=C(C#N)[C@@H](c2ccc3[nH]nc(C)c3c2)C(C#N)=C(c2ccc(Cl)cc2)N1` [BAY-827]: the residual activity in test [16] is 100%; in [17], 100%; in [18], 100%; in [19], 100%; in [20], 94.3%; in test [21] it was 74.3%. The residual activity in [22] is 93.2%; in [23], 53.5%; in [24] it was 100%; in test [25], 100%; in test [26] it was 100%; in test [27] it was 88.5%. Moreover, the residual activity in test [28] is 100%; in test [29], 76.2%; in test [30], 100%; in test [31] it was 100%; in test [32] it was 83.5%; in [33] it was 96.3%. In addition, the residual activity in [34] is 100%; in test [35], 91.1%; in [36], 100%; in test [37], 100%; in test [38], 100%; in [39] it was 17.2%. In addition, the residual activity in test [41] was 86.2%; in test [42] it was 89.5%; in [43] it was 74.6%; in [44], 100%; in test [45], 100%; in test [46], 93.5%. Moreover, the inhibition in test [40] is -7.44%.
